Measured values taken from patent US20140080114A1, “METHODS, KITS AND COMPOSITIONS FOR INACTIVATION OF VIRAL AGENTS IN WHOLE BLOOD AND RED BLOOD CELL CONCENTRATES” (APHIOS CORPORATION, priority 2012, published 2014).

System: bovine viral diarrhea virus (BVDV)
Assay: Hypericin-luciferase inactivation of BVDV spiked into human red blood cell concentrate, titration of unwashed and washed samples (CPE, TCID50)
Assay type: cell-based
Details: for Unwashed Titer / Combined VRF (Titer of unwashed RBC control − Titer of washed sample) / Unwashed VRF (Titer of RBC control − Titer of sample) / Washed Titer / Washed VRF (Titer of RBC control − Titer of sample): Table 1 (Example 1), hypericin low=40, high=200 μg/mL, luciferase low=0.8, high=4.0 μM; for Unwashed Titer: RBCC, RT 2 hours in the dark, luciferin 0.08 mM, ATP 0.8 mM
Method: This dose range had not been tested in the previous experiments. Ten different combinations of DMEM (—Ca++, —Mg++), RBCC, virus, hypericin, luciferin, adenosine triphosphate (ATP) and luciferase were prepared to all contain equivalent titers of BVDV calculated to be 6.48 log 10TCID50/mL (logs) based on the titer of the original virus stock. The concentrations of hypericin tested were 40, 80 and 120 μg/mL. Luciferase was tested at 0.16, 0.32 and 0.8 μM. Luciferin and ATP were present at 80 and 800 μM respectively.
The compounds were mixed and incubated at RT for 2 hours in the dark followed by titration of unwashed and washed samples as previously described. Washing rows of wells with dilutions 1 and 2 was performed 2 days post-infection. Final CPEs were read 10 days post-infection.

SMILES | Unwashed Titer | Combined VRF (Titer of unwashed RBC control − Titer of washed sample) | Unwashed VRF (Titer of RBC control − Titer of sample) | Washed Titer | Washed VRF (Titer of RBC control − Titer of sample) | optimal dose of hypericin (with different doses of luciferase, for BVDV)
Cc1cc(O)c2c(=O)c3c(O)cc(O)c4c5c(O)cc(O)c6c(=O)c7c(O)cc(C)c8c1c2c(c34)c(c78)c65 [HH-LN, hypericin] | 3.10 log10TCID50/mL | 3.87 log TCID50 | 3.25 log TCID50 | 2.48 log10TCID50/mL | 1.50 log TCID50 | 
Cc1cc(O)c2c(=O)c3c(O)cc(O)c4c5c(O)cc(O)c6c(=O)c7c(O)cc(C)c8c1c2c(c34)c(c78)c65 [HL-LN, hypericin] | 3.48 log10TCID50/mL | >4.01 log TCID50 | 2.87 log TCID50 | <2.34 log10TCID50/mL | >1.64 log TCID50 | 
Cc1cc(O)c2c(=O)c3c(O)cc(O)c4c5c(O)cc(O)c6c(=O)c7c(O)cc(C)c8c1c2c(c34)c(c78)c65 [hypericin, reference compound] |  |  |  |  |  | 40 µg/mL
